Results: the supplement of paper PMC10307832

What follows are cell lines tested with CC(C)(C)c1cc(NC(=O)Nc2ccc(-c3cn4c(n3)sc3cc(OCCN5CCOCC5)ccc34)cc2)no1 [Quizartinib] (assay: relative viability (nuclei count vs DMSO), 5 days (fraction); higher = more cells survive). Conditions: 0.001 µM.
Method in brief: (§1)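 Lung cancer cell lines in 1536-well plates were exposed by pinning to five library-drug doses (not always all listed) √10 apart, following an overnight hold at 37 °C. MetaXpress counted Hoechst-stained nuclei from 4× images taken after 5 days without medium change. Viability is the median ratio of treated-well to vehicle-well nuclei across plates. Plates required control CV below 25% and at least one doubling.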

Cell Line | relative viability
NCI-H727 | 0.7
SW 1573 | 0.87
201T | 1.01
HCC-44 | 0.963
NCI-H1755 | 0.866
NCI-H1650 | 0.877
COR-L23 | 0.952
NCI-H2085 | 0.95
NCI-H460 | 0.811
BEN | 0.906
PC-3 [JPC-3] | 0.978
LC-2-ad | 0.827

Same assay, conditions: 0.003162 µM

Cell Line | relative viability
NCI-H1793 | 1.01
NCI-H727 | 0.899
SW 1573 | 0.971
201T | 1.01
HCC-44 | 0.981
NCI-H1755 | 0.958
NCI-H1650 | 0.976
COR-L23 | 0.939
NCI-H2085 | 0.939
NCI-H460 | 0.957
BEN | 0.982
PC-3 [JPC-3] | 1.02
LC-2-ad | 1.02

Same assay, conditions: 0.01 µM

Cell Line | relative viability
NCI-H1793 | 0.839
NCI-H727 | 0.883
SW 1573 | 1.09
201T | 0.987
HCC-44 | 0.888
NCI-H1755 | 0.996
NCI-H1650 | 0.918
COR-L23 | 0.992
NCI-H2085 | 1.02
NCI-H460 | 1.02
BEN | 0.94
PC-3 [JPC-3] | 1.04
LC-2-ad | 0.972

Same assay, conditions: 0.03162 µM

Cell Line | relative viability
NCI-H1793 | 0.853
NCI-H727 | 0.83
SW 1573 | 0.481
201T | 0.98
HCC-44 | 1
NCI-H1755 | 1.07
COR-L23 | 0.979
NCI-H2085 | 0.943
NCI-H460 | 0.78
BEN | 0.813
PC-3 [JPC-3] | 0.852
LC-2-ad | 0.863

Same assay, conditions: 0.1 µM

Cell Line | relative viability
NCI-H1793 | 0.925
NCI-H727 | 0.96
SW 1573 | 1.08
201T | 0.934
HCC-44 | 0.858
NCI-H1755 | 0.99
NCI-H1650 | 1
COR-L23 | 1.05
NCI-H2085 | 0.976
NCI-H460 | 0.942
BEN | 0.972
PC-3 [JPC-3] | 1.08
LC-2-ad | 0.892

What follows are cell lines tested with COCC[n+]1c2c(n(Cc3cnccn3)c1C)C(=O)c1ccccc1C2=O [YM155] in the same assay as above. Conditions: 0.002 µM.
Method in brief: as §1

Cell Line | relative viability
NCI-H1793 | 0.706
NCI-H727 | 0.932
SW 1573 | 1.02
201T | 0.922
HCC-44 | 0.986
NCI-H1755 | 0.973
NCI-H1650 | 0.867
COR-L23 | 0.988
NCI-H2085 | 0.954
NCI-H460 | 0.984
BEN | 0.899
PC-3 [JPC-3] | 1.01
LC-2-ad | 0.914

Same assay, conditions: 0.006325 µM

Cell Line | relative viability
NCI-H1793 | 0.936
NCI-H727 | 0.933
SW 1573 | 0.939
201T | 1.01
HCC-44 | 1.03
NCI-H1755 | 0.996
NCI-H1650 | 0.921
COR-L23 | 0.912
NCI-H2085 | 0.986
NCI-H460 | 1.02
BEN | 0.972
PC-3 [JPC-3] | 1.07
LC-2-ad | 0.978

Same assay, conditions: 0.02 µM

Cell Line | relative viability
NCI-H1793 | 0.908
NCI-H727 | 0.967
SW 1573 | 0.803
201T | 1.01
HCC-44 | 0.988
NCI-H1755 | 0.968
NCI-H1650 | 0.863
COR-L23 | 0.689
NCI-H2085 | 0.922
NCI-H460 | 0.997
BEN | 1.09
PC-3 [JPC-3] | 1.1
LC-2-ad | 0.972

Same assay, conditions: 0.06325 µM

Cell Line | relative viability
NCI-H1793 | 0.869
NCI-H727 | 1.04
SW 1573 | 0.394
201T | 0.998
HCC-44 | 0.978
NCI-H1755 | 1.03
NCI-H1650 | 0.739
COR-L23 | 0.281
NCI-H2085 | 0.636
NCI-H460 | 0.988
BEN | 1.11
PC-3 [JPC-3] | 1
LC-2-ad | 0.913
